From patent publication US20250346592A1 (Celgene Corporation, priority 2022, published 2025)

Biological target: hPAD4 enzyme (Homo sapiens (Human), UniProt Q9UM07)
Test: RFMS2 assay (RapidFire mass spectrometry, TSTGGRQGSHH peptide substrate)
Assay type: biochemical
Settings: 35 nM recombinant human PAD4, 500 μM TSTGGRQGSHH peptide, 30 minutes at room temperature; read-out: RFMS 2 IC50
Procedure, shortened: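 IC50 derived from RapidFire LC-MS/MS (positive ESI MRM) of substrate versus product after a 30 min room-temperature reaction stopped with 10% formic acid. Reaction contained 35 nM human PAD4, 500 μM peptide, 2 mM CaCl2, 5 mM DTT at pH 7.4, and compounds diluted 3-fold from 20 μM.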

Chain of hPAD4 enzyme (Q9UM07 whole entry): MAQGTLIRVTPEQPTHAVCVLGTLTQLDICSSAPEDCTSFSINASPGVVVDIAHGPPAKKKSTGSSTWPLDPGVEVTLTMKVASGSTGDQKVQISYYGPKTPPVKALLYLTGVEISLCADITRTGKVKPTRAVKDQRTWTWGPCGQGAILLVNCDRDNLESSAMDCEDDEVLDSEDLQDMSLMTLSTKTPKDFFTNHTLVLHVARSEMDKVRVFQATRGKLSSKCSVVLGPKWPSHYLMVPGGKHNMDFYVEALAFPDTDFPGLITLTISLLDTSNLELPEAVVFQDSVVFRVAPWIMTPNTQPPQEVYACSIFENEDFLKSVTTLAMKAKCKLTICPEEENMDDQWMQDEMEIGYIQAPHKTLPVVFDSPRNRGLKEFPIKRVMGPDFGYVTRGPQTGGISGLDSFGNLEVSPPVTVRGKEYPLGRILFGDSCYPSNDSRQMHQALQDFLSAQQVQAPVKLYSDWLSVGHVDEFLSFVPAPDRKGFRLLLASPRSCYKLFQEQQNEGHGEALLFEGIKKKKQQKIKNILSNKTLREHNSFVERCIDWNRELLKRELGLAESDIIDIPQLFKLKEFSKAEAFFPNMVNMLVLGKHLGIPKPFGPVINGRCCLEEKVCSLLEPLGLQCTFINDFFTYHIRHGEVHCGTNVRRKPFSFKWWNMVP

| IC50 [µM] | SMILES |
| --- | --- |
| 0.101 to 0.5 | Cc1nc(C)n(CCOc2cccc3cc(-c4nc5cc6c(cc5n4C)CCN(C[C@H](N)CF)C6=O)n(CC4CC4)c23)n1 [Example 162, (S)-6-(2-amino-3-fluoropropyl)-2-(1-(cyclopropyl-methyl)-7-(2-(3,5-dimethyl-1H-1,2,4-triazol-1-yl)ethoxy)-1H-indol-2-yl)-1-methyl-1,6,7,8-tetrahydro-5H-imidazo[4,5-g]isoquinolin-5-one] |
| 0.101 to 0.5 | Cc1ncnn1CCOc1cccc2cc(-c3nc4cc5c(cc4n3C)CCN(C[C@H](N)CF)C5=O)n(CC3CC3)c12 [Example 163, (S)-6-(2-amino-3-fluoropropyl)-2-(1-(cyclopropylmethyl)-7-(2-(5-methyl-1H-1,2,4-triazol-1-yl)ethoxy)-1H-indol-2-yl)-1-methyl-1,6,7,8-tetrahydro-5H-imidazo[4,5-g]isoquinolin-5-one] |
| 0.011 to 0.1 | Cc1ncn(CCOc2cccc3cc(-c4nc5cc6c(cc5n4C)CCN(C[C@H](N)CF)C6=O)n(CC4CC4)c23)n1 [Example 164, (S)-6-(2-amino-3-fluoropropyl)-2-(1-(cyclopropyl-methyl)-7-(2-(3-methyl-1H-1,2,4-triazol-1-yl)ethoxy)-1H-indol-2-yl)-1-methyl-1,6,7,8-tetrahydro-5H-imidazo[4,5-g]isoquinolin-5-one] |
| 0.101 to 0.5 | Cn1c(-c2cc3cccc(OCc4cnco4)c3n2CC2CC2)nc2cc3c(cc21)CCN(C[C@H](N)CF)C3=O [Example 166, (S)-6-(2-amino-3-fluoropropyl)-2-(1-(cyclopropyl-methyl)-7-(oxazol-5-ylmethoxy)-1H-indol-2-yl)-1-methyl-1,6,7,8-tetrahydro-5H-imidazo[4,5-g] isoquinolin-5-one] |
| 0.101 to 0.5 | Cn1c(-c2cc3cccc(OCc4ccon4)c3n2CC2CC2)nc2cc3c(cc21)CCN(C[C@H](N)CF)C3=O [Example 167, (S)-6-(2-amino-3-fluoropropyl)-2-(1-(cyclopropylmethyl)-7-(isoxazol-3-ylmethoxy)-1H-indol-2-yl)-1-methyl-1,6,7,8-tetrahydro-5H-imidazo[4,5-g]isoquinolin-5-one] |
| 0.011 to 0.1 | Cn1c(-c2cc3cccc(OC[C@H]4CNC(=O)O4)c3n2CC2CC2)nc2cc3c(cc21)CCN(C[C@H](N)CF)C3=O [Example 168, (R)-5-(((2-(6-((S)-2-amino-3-fluoropropyl)-1-methyl-5-oxo-5,6,7,8-tetrahydro-1H-imidazo [4,5-g]isoquinolin-2-yl)-1-(cyclopropylmethyl)-1H-indol-7-yl)oxy)methyl)oxazolidin-2-one] |
| 0.101 to 0.5 | Cn1c(-c2cc3cccc(OCCc4ccon4)c3n2CC2CC2)nc2cc3c(cc21)CCN(C[C@H](N)CF)C3=O [Example 170, (S)-6-(2-amino-3-fluoropropyl)-2-(1-(cyclopropyl-methyl)-7-(2-(isoxazol-3-yl)ethoxy)-1H-indol-2-yl)-1-methyl-1,6,7,8-tetrahydro-5H-imidazo[4,5-g] isoquinolin-5-one] |
| 0.101 to 0.5 | Cn1c(-c2cc3cccc(OCc4ccnnc4)c3n2CC2CC2)nc2cc3c(cc21)CCN(C[C@H](N)CF)C3=O [Example 171, (S)-6-(2-amino-3-fluoropropyl)-2-(1-(cyclopropylmethyl)-7-(pyridazin-4-ylmethoxy)-1H-indol-2-yl)-1-methyl-1,6,7,8-tetrahydro-5H-imidazo [4,5-g]isoquinolin-5-one] |
| 0.011 to 0.1 | Cn1c(-c2cc3cccc(OCC4COC(=O)N4)c3n2CC2CC2)nc2cc3c(cc21)CCN(C[C@H](N)CF)C3=O (stereo partly drawn) [Example 172, 4-(((2-(6-((S)-2-amino-3-fluoropropyl)-1-methyl-5-oxo-5,6,7,8-tetrahydro-1H-imidazo[4,5-g]isoquinolin-2-yl)-1-(cyclopropylmethyl)-1H-indol-7-yl)oxy)methyl)oxazolidin-2-one] |
| 0.011 to 0.1 | Cn1c(-c2cc3cccc(OCCc4cc[nH]n4)c3n2CC2CC2)nc2cc3c(cc21)CCN(C[C@H](N)CF)C3=O [Example 173, (S)-2-(7-(2-(1H-pyrazol-3-yl)ethoxy)-1-(cyclopropylmethyl)-1H-indol-2-yl)-6-(2-amino-3-fluoropropyl)-1-methyl-1,6,7,8-tetrahydro-5H-imidazo [4,5-g]isoquinolin-5-one] |
| 0.101 to 0.5 | Cn1c(-c2cc3cccc(OCc4ccno4)c3n2CC2CC2)nc2cc3c(cc21)CCN(C[C@H](N)CF)C3=O [Example 175, (S)-6-(2-amino-3-fluoropropyl)-2-(1-(cyclopropyl-methyl)-7-(isoxazol-5-ylmethoxy)-1H-indol-2-yl)-1-methyl-1,6,7,8-tetrahydro-5H-imidazo[4,5-g] isoquinolin-5-one] |
| 0.101 to 0.5 | Cn1c(-c2cc3cccc(OCc4nnco4)c3n2CC2CC2)nc2cc3c(cc21)CCN(C[C@H](N)CF)C3=O [Example 176, (S)-2-(7-((1,3,4-oxadiazol-2-yl)methoxy)-1-(cyclopropylmethyl)-1H-indol-2-yl)-6-(2-amino-3-fluoropropyl)-1-methyl-1,6,7,8-tetrahydro-5H-imidazo[4,5-g]isoquinolin-5-one] |
| 0.101 to 0.5 | Cc1nnc(COc2cccc3cc(-c4nc5cc6c(cc5n4C)CCN(C[C@H](N)CF)C6=O)n(CC4CC4)c23)o1 [Example 177, (S)-6-(2-amino-3-fluoropropyl)-2-(1-(cyclopropyl-methyl)-7-((5-methyl-1,3,4-oxadiazol-2-yl)methoxy)-1H-indol-2-yl)-1-methyl-1,6,7,8-tetrahydro-5H-imidazo[4,5-g]isoquinolin-5-one] |
| 0.101 to 0.5 | Cn1c(-c2cc3cccc(OCCn4cccc4)c3n2CC2CC2)nc2cc3c(cc21)CCN(C[C@H](N)CF)C3=O [Example 180, (S)-2-(7-(2-(1H-pyrrol-1-yl)ethoxy)-1-(cyclopropyl-methyl)-1H-indol-2-yl)-6-(2-amino-3-fluoropropyl)-1-methyl-1,6,7,8-tetrahydro-5H-imidazo[4,5-g] isoquinolin-5-one] |
| 0.101 to 0.5 | Cc1nncn1CCOc1cccc2cc(-c3nc4cc5c(cc4n3C)CCN(C[C@H](N)CF)C5=O)n(CC3CC3)c12 [Example 182, (S)-6-(2-amino-3-fluoropropyl)-2-(1-(cyclopropylmethyl)-7-(2-(3-methyl-4H-1,2,4-triazol-4-yl)ethoxy)-1H-indol-2-yl)-1-methyl-1,6,7,8-tetrahydro-5H-imidazo[4,5-g]isoquinolin-5-one] |
| 0.101 to 0.5 | Cn1c(-c2cc3cccc(OCc4cccnn4)c3n2CC2CC2)nc2cc3c(cc21)CCN(C[C@H](N)CF)C3=O [Example 183, (S)-6-(2-amino-3-fluoropropyl)-2-(1-(cyclopropylmethyl)-7-(pyridazin-3-ylmethoxy)-1H-indol-2-yl)-1-methyl-1,6,7,8-tetrahydro-5H-imidazo[4,5-g]isoquinolin-5-one] |
| 0.101 to 0.5 | Cn1c(-c2cc3cccc(OCC4CC(F)(F)C(=O)N4)c3n2CC2CC2)nc2cc3c(cc21)CCN(C[C@H](N)CF)C3=O (stereo partly drawn) [Example 185, 6-((S)-2-amino-3-fluoropropyl)-2-(1-(cyclopropylmethyl)-7-((4,4-difluoro-5-oxopyrrolidin-2-yl)methoxy)-1H-indol-2-yl)-1-methyl-1,6,7,8-tetrahydro-5H-imidazo[4,5-g]isoquinolin-5-one] |
| > 1 | Cn1c(-c2cc3cccc(OC[C@@H]4COCCN4)c3n2CC2CC2)nc2cc3c(cc21)CCN(C[C@H](N)CF)C3=O [Example 187, 6-((S)-2-amino-3-fluoropropyl)-2-(1-(cyclopropylmethyl)-7-(((S)-morpholin-3-yl)methoxy)-1H-indol-2-yl)-1-methyl-1,6,7,8-tetrahydro-5H-imidazo[4,5-g]isoquinolin-5-one] |
